Data from US20250313554A1, “PTPN2 INHIBITORS” (Ness Therapeutics, Inc., priority 2022, published 2025).
Read-outs that look alike come from different tables or passages of the source.

Key:
[1] = Pharmacokinetic (PK) study in mice, oral bioavailability; type: in vivo, Male CD-1 mice; settings: 10 mg/kg PO vs 2 mg/kg IV, 10% Ethanol, 30% PEG-400, 60% Phosal-50PG, form Suspension
Protocol: Pharmacokinetic (PK) study in mice: Male CD-1 mice obtained from Charles River GmbH (Sulzfeld, Germany) with body weight ranging between 30 g to 40 g were used in the PK studies. Group of 12 mice were given a 2 mg/kg intravenous bolus (IV) dose of test article as a solution in 20% HP-beta-CD, and another group of 9 mice were given a 10 mg/kg oral (PO) dose of test article as a solution or suspension in [10% ethanol, 30% PEG-400 and 60% Phosal-50PG]. Blood samples (˜200 μL per time point) were collected twice from each animal—from orbital sinus and by cardiopuncture at 0.083, 0.25, 0.5, 1, 2, 4, 8 and 24 hours after IV administration, and at 0.5, 1, 2, 4, 8 and 24 hours after PO administration, 3 mice/time point. Blood samples were collected in tubes with Na-EDTA 0.5 M solution (1:10) and centrifuged for 10 min at 10,000 rpm at 2 to 8° C. to harvest plasma. Plasma samples were stored at −80° C. until LC/MS/MS analysis. Concentration in each plasma sample was determined by a non-validated LC/MS/MS. Data is acquired using multiple reaction monitoring (MRM) with specific transitions monitored for each compound. Pharmacokinetic Analysis: PK parameters were calculated by non-compartmental methods as described in Gibaldi and Perrier (Gibaldi and Perrier, 1982) using Phoenix® WinNonlin® version 6.3 (Certara L.P.). Following PO administration, percent bioavailability (Fabs) was determined by dividing the dose normalized mean area under the plasma concentration-time curve, extrapolated to the last time point (AUClast) obtained following PO dose by the mean dose normalized AUC of the animals dosed by IV injection. All PK parameters are presented as mean±standard deviation (SD). PK studies were conducted in mice for exemplary compounds of Formula (I). The percent bioavailability (Fabs) values determined are listed in Table C for certain compounds, together with the dosage, vehicle and form used in the studies.

[2] = test system: B16F10 mouse melanoma cells; experiment: Tumor cells B16F10 cellular growth IFNγ-induced inhibition assay (CellTiter-Glo); type: cell-based; settings: for IC50: B16-F10, 72 h, 3 days of incubation; for inhibition at 100 µM: B16-F10, B16F10, 100 μM compound
Protocol: B16F10 mouse melanoma cells (ATCC Cat #CRL-6475) were seeded at a density of 500 cells per well in a 384-well clear bottom plate (Corning Cat #3712, Corning, N.Y.) in 40 μL total volume of DMEM+10% FBS (PanEco Cat #C420, Russia and Sigma Cat #F4135, St. Louis, MO). Cells were allowed to adhere overnight at 37° C., 5% CO2. On the following day, 250× solutions of compounds in DMSO (Sigma Cat #D2650) were prepared into Cmpnds plate (Diamond Well Plate, Axigen, Cat #P-384-120SQ-C-S) (final concentration of 1×) and DMSO only controls were included. Dilution Plate (Diamond Well Plate (Axigen, Cat #P-384-120SQ-C-S) was prepared by adding 49 μL of culture medium per well: half of the plate with culture medium only, half with culture medium+IFNγ (5 ng/ml). A 1 μL aliquot of 250× compounds (Cmpnds plate) was added to 49 μL of culture medium (Dilution plate), then a 10 μL aliquot of the mixture was transferred to Reaction plate with 40 μL of cells followed by centrifugation at 240 g for 1 min. After 3 days of incubation, 10 μL of CellTiter-Glo (Promega) was added to the cells, plates were centrifuged at 240 g for 1 min, and luminescence signal was measured. For each compound, the percent growth inhibition at every compound dose level was calculated relative to the “DMSO/with IFNγ” control and used to determine the IC50.

GST-tagged PTPN2 protein = GST-tagged PTPN2 protein (Homo sapiens (Human), UniProt P17706); experiment: Primary assay of PTPN2 enzymatic activity inhibition (DiFMUP fluorescence); type: biochemical; settings: PTPN2 0.004 ng/μL, DiFUMP substrate 2 μM, 60 min at rt
GST-tagged PTPN2 protein, sequence (P17706 whole entry): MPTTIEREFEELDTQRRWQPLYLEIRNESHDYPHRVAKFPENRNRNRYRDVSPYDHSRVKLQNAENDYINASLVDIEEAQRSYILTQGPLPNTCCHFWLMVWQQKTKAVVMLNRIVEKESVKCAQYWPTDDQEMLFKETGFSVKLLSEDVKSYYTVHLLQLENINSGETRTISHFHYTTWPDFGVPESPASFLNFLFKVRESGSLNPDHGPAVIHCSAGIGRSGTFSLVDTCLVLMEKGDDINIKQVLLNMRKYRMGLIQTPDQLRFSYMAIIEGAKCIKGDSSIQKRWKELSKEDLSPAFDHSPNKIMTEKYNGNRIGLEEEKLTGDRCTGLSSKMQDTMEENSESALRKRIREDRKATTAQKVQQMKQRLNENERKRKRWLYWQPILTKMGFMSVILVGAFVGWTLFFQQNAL
Protocol: Compound activity was determined using GST-tagged PTPN2 protein (Cat #31592, ActiveMotif) (SEQ ID NO: 1) in an in vitro enzymatic reaction. The enzymatic reaction was carried out in assay buffer (50 mM HEPES Na salt pH 7.2-7.4, 2 mM EDTA, 100 mM NaCl, 52 ng/μL BSA, and 6 mM DTT). The compounds were dispensed on a 384 well Diamond Well Plate (Axigen, Cat #P-384-120SQ-C-S) using the Biomek FX liquid handling system at 100× solutions of compounds in DMSO. 2×PTPN2 (final concentration 0.004 ng/μL) was prepared in 1× Assay buffer and 25 μL of mixture per well was added into Reaction plate (Optiplate, black, Perkin Elmer, Cat #6007270). Add 25 μL of 1× buffer to Ctrl- (Substrate w/o PTPN2) wells followed by centrifugation at 100 g for 1 min. Next step the Compounds were added to Reaction plate using Biomek station via following steps: 3 μl of 100× compounds (in DMSO) were mixed with 27 μL of Assay Buffer, then 5 μL of this mixture was added to Reaction plate with 25 μL of PTPN2 Mix. Plates were centrifuged for 1 min at 100 g and incubated for another 10 min at rt. Finally, 20 μL of 2.5× Substrate (DiFUMP, Invitrogen™ Cat #D6567) mix was added into appropriate wells of Reaction plate to the final concentration of 2 μM, plate was centrifuged at 100 g for 1 min followed by incubation at rt for 60 min, and the Fluorescence Intensity was measured using a Microplate Reader (ClarioStar Plus, excitation 360 nm, emission 450 nm). The % inhibition was then used to calculate the Ki values. The Ki values are shown in Table A, wherein “A” corresponds to Ki<1.0 nm, “B” corresponds to 1.0 nm≤Ki<5.0 nm, “C” corresponds to 5.0 nm≤Ki<10.0 nm, “D” corresponds to 10.0 nm≤Ki<50.0 nm, and “E” corresponds to 50.0 nm≤Ki<100.0 nm, and “F” corresponds to 100.0 nm≤Ki.

For `O=C1CN(c2c(O)cc(Nc3nccc(O)n3)cc2F)S(=O)(=O)N1` [Compound 7, 5-[2-fluoro-6-hydroxy-4-[(4-hydroxypyrimidin-2-yl)amino]phenyl]-1,1-dioxo-1,2,5-thiadiazolidin-3-one], the “Fabs, %” value [1] was 6.1%, the IC50 ([2]; B16F10, no IFNγ, read-out: IC50 no IFNγ) was over 100 µM and the IC50 ([2]; B16F10, with IFNγ, read-out: IC50 + IFNγ) was 5 to 10 µM. The inhibition at 100 µM ([2]; no IFNγ, read-out: % Growth Inhibition at 100 μM no IFNγ) was 10 to 50%, the inhibition at 100 µM ([2]; with IFNγ, read-out: % Growth Inhibition at 100 μM + IFNγ) was 75 to 100% and the Ki (GST-tagged PTPN2 protein) was 0.001 to 0.005 µM.
